Columns and labels:
[1] = system: orthotopic neuroblastoma xenograft (SK-N-BE(2) cells); test: Orthotopic neuroblastoma xenograft model, tumor growth by ultrasound; type: in vivo, mice; conditions: diet 2000 ppm NEN (n=4) vs control group (n=6)
Procedure: Mouse orthotopic neuroblastoma model. All mouse procedures were performed in accordance with Stanford University recommendations for the care and use of animals and were maintained and handled under protocols approved by the Institutional Animal Care and Use Committee. All procedures were performed with female NC nude mice (Taconic, Hudson, NY, USA) at 7 weeks of age. Procedures and ultrasound measurements (see below) were performed under general anesthesia using isoflurane inhalation. Orthotopic tumors within the adrenal gland were created as described before 16. Briefly, a transverse incision was made on the left flank to locate the left adrenal gland, and […] of phosphate buffered saline (PBS) containing […] SK-N-BE(2) cells were injected into the adrenal gland using a 30 G needle. Fascia and skin were closed in separate layers. Tumor formation was monitored by non-invasive ultrasound measurements, and the animals euthanized when the tumor volume exceeded 1,000 mm^3. Monitoring tumor growth with high frequency ultrasound. After securing the mouse in a prone position, a Visual Sonics Vevo 2100 sonographic probe (Toronto, Ontario, Canada) was applied to the left flank to locate the left adrenal gland and the tumor. […] The tumor volume was measured using the 3-D reconstruction tool (Vevo Software v1.6.0, Toronto, Ontario, Canada).

NB16 cells = test: U-13C-glutamine isotope tracing (LC/MS); type: cell-based
Procedure: (§1) Metabolic analysis. For the metabolomics and isotope tracing analysis in vitro, cells were washed with cold PBS, lysed in 80% Ultra LC-MS acetonitrile on ice for 15 minutes, centrifuged at 20,000 g for 10 minutes at 4° C., and supernatant was subjected to mass spectrometry analysis. For the metabolomics analysis in vivo, 10-20 mg tissue were cut off on ice, rinsed if necessary to remove blood, and place in a 2 ml round-bottom cryovial. The tissues were homogenized by 3 times 10 s on/off bursts homogenization in 1 ml 80% methanol on dry ice. Transfer the homogenate to an Eppendorf tube and keep on liquid nitrogen while processing the remaining samples. Incubated all the samples in −80° C. for 30 minutes. After incubation, vortexed the samples for 5 seconds. Then centrifuged the samples at 20,000 g for 10 minutes at 4° C., and supernatant was subjected to mass spectrometry analysis. Resuspend the remaining cellular pellet in 100 ul protein lysis buffer and determine the protein concentration. Then calculate the total protein content per sample.
(§2) Liquid chromatography was performed using an Agilent 1290 Infinity LC system (Agilent, Santa Clara, US) coupled to a Q-TOF 6545 mass spectrometer (Agilent, Santa Clara, US). A hydrophilic interaction chromatography method (HILIC) with a BEH amide column (100×2.1 mm i.d., 1.7 μm; Waters) was used for compound separation at 35° C. with a flow rate of 0.3 ml/minutes. The mobile phase A consisted of 25 mM ammonium acetate and 25 mM ammonium hydroxide in water and mobile phase B was acetonitrile. The gradient elution was 0-1 minute, 85% B; 1-12 minutes, 85% B→65% B; 12-12.2 minutes, 65% B→40% B; 12.2-15 minutes, 40% B. After the gradient, the column was re-equilibrated at 85% B for 5 minutes. The overall runtime was 20 minutes, and the injection volume was 5 μL. Agilent Q-TOF was operated in negative mode and the relevant parameters were as listed: ion spray voltage, 3500 V; nozzle voltage, 1000 V; fragmentor voltage, 125 V; drying gas flow, 11 L/minutes; capillary temperature, 325° C., drying gas temperature, 350° C.; and nebulizer pressure, 40 psi. A full scan range was set at 50 to 1600 (m/z). The reference mass was 119.0363 and 980.0164. The acquisition rate was 2 spectra/s. Targeted analysis, isotopologues extraction and natural isotope abundance correction were performed by Agilent Profinder B.10.00 (Agilent Technologies).
(§3) Stable isotope tracing analysis. […] Then the culture medium was changed to DMEM/F-12, no glutamine (Gibco, 21331020) with 4 mM U-^13C5-glutamine (Cambridge Isotope Laboratories, CLM-1822-H) and 10% dialyzed FBS (Gibco, 26400044) under same treatment condition as above for 2 h. […] Then changed the medium to DMEM/F-12, no glutamine (Gibco, 21331020) with 4 mM 1-^13C-glutamine (Cambridge Isotope Laboratories, CLM-CLM-3612-PK) and 10% dialyzed FBS (Gibco, 26400044) for 2 h with same treatment under normoxia or hypoxia for 2 h.

SK-N-BE(2) cells = test: U-13C-glutamine isotope tracing (LC/MS); type: cell-based
Procedure: as §1, §2, §3

[2] = NB16, 1 μM NEN 3 h pretreatment then 2 h label
[3] = 1 μM NEN 3 h pretreatment then 2 h label

O=C(Nc1ccc([N+](=O)[O-])cc1Cl)c1cc(Cl)ccc1O [NEN, 5-chloro-N-(2-chloro-4-nitrophenyl)-2-hydroxybenzamide compound with 2-aminoethanol (1:1)]
tumor growth [1]: significantly slowed | m+4 aspartate (NB16 cells; [2]): increased | m+4 succinate (NB16 cells; [2]): increased | m+5 2-HG labelling (NB16 cells; [2]): no significant reduction | m+5 and m+3 labeling of α-KG from glutamine (NB16 cells; [2]): increased | reductive carboxylation flux (labelling fraction of m+5 citrate, m+3 fumarate, m+3 malate) (NB16 cells; NB16, U-13C-glutamine, 1 μM NEN, normoxia): significantly inhibited | labelling abundance of m+2 (2nd cycle) and m+½ (3rd cycle) aspartate (SK-N-BE(2) cells; [3]): significantly increased | labelling abundance of m+2 (2nd cycle) and m+½ (3rd cycle) succinate (SK-N-BE(2) cells; [3]): significantly increased | labelling percentage of m+3 (2nd cycle) α-KG (SK-N-BE(2) cells; [3]): significantly increased | labelling percentage of m+½ (3rd cycle) α-KG (SK-N-BE(2) cells; [3]): significantly increased | m+5 labelling abundance of 2-HG (SK-N-BE(2) cells; [3]): significantly decreased | m+5 α-KG labelling from U-13C-glutamine (SK-N-BE(2) cells; [3]): no significant increase | reductive carboxylation flux (labelling fraction of m+5 citrate, m+3 fumarate, m+3 malate) (SK-N-BE(2) cells; U-13C-glutamine, 1 μM NEN, normoxia): significantly inhibited

From patent US11918550B2, “Sensitization of cancer cells to differentiation therapy with mitochondrial uncoupler niclosamide ethanolamine” (The Board of Trustees of the Leland Stanford Junior …, priority 2020, dated 2024)
